Like-named read-outs stand apart in the source and are kept apart here. Marks after values point to notes of the source that are not given here.
Columns and labels:
MCF-7 mammary carcinoma [1] = test: In vivo activity against MCF-7 tumour implanted s.c.; conditions: i.p., 120 mg/kg/day, qd 6, 13, 20
[2] = system: BO (T61) human mammary carcinomas; test: In vivo activity against implanted BO tumour; design: species or system NMRI-nu/nu female mice; conditions: i.p., qd 27,34,41
[3] = Lethal dose (LD50) determination; format: in vivo
A2780 ovarian carcinoma = test: In vitro cytotoxicity assay; format: cell-based, human
Description: (§1) This is illustrated in Tables 1 and 2 at the end of the present description which show in vitro test results obtained in various sets of experiments for the cytotoxic activity of this compound CJM 126 against a range of human tumour cell lines, expressed in terms of IC50 values (concentration or dosage required to reduce cell growth or proliferation by 50%) calculated from dose-effect curves plotted for cultures of the cells in question.
(§2) In carrying out the above in vitro studies, the method used for conducting the cytotoxicity assays was generally substantially as follows: • Cells were maintained in a continuous logarithmic culture in Dulbecco's medium supplemented with 10% fetal calf serum and penicillin (100 IU/ml) and streptomycin (100 µg/ml). The cells were mildly trypsinized for passage and for use in assays. On day zero, 100µl of trypsinized tumour cells (1 x 10^4/ml) were plated in the wells of 96-well flat-bottom microtiter plates. […] On day two 50µl of the highest drug concentration was added to the wells of column 12 and from there serially diluted 3-fold to column 1 by serial transfer of 50µl using an 8-channel micropipette. The final volume of column 1 was adjusted to 100µl. No additions were made to the wells of rows A and B, which served as controls. The plates were further incubated for 5 days at 37°C and 5% CO2 in air. Each compound was tested in duplicate. • On day 7 the test was terminated by the addition of 100µl saline containing 0.002% w/v propidium iodide (Sigma), 0.3% drawing ink (Staedtler "Marsmatic 745" - Trade Mark) and 0.5% Triton X-100. The plates were kept at 4°C overnight before reading on an inverted microscope equipped with an automated scanning stage. Fluorescence intensity was measured in arbitrary units by a photomultiplier. An HP-87 computer controlled the movement of the stage and also collected and processed the data from the multiplier. • For each compound tested a dose-response curve was obtained and the IC50 value (the drug concentration at 50% inhibition of cell growth) was calculated.

[4] = system: MDA 468 mammary (ER-/EGFR+); test: In vitro cytotoxicity assay; format: cell-based, human; conditions: Homo sapiens
Description: as §1, §2

ZR 75 mammary (ER+) = test: In vitro cytotoxicity assay; format: cell-based; conditions: Homo sapiens, ZR75
Description: as §1, §2

A2780/CisR = test: In vitro cytotoxicity assay; format: cell-based; conditions: Homo sapiens, A2780cisR; 2nd series of experiments
Description: as §1, §2

CH 1/CisR = test: In vitro cytotoxicity assay; format: cell-based; conditions: Homo sapiens, CH1cisR; 2nd series of experiments
Description: as §1, §2

41M/CisP = test: In vitro cytotoxicity assay; format: cell-based; conditions: Homo sapiens; 2nd series of experiments
Description: as §1, §2

HX/62 ovarian carcinoma = test: In vitro cytotoxicity assay; format: cell-based; conditions: Homo sapiens, HX62; 2nd series of experiments
Description: as §1, §2

MCF 7-T (ER-) = test: In vitro cytotoxicity assay; format: cell-based; conditions: Homo sapiens; 2nd series of experiments
Description: as §1, §2

MCF 7-B (ER+) = test: In vitro cytotoxicity assay; format: cell-based; conditions: Homo sapiens; 2nd series of experiments
Description: as §1, §2

A204 rhabdomyosarcoma = test: In vitro cytotoxicity assay; format: cell-based; conditions: Homo sapiens
Description: as §1, §2

CH 1 ovarian carcinoma = test: In vitro cytotoxicity assay; format: cell-based; conditions: Homo sapiens; 2nd series of experiments
Description: as §1, §2

WiDr colon carcinoma = test: In vitro cytotoxicity assay; format: cell-based; conditions: Homo sapiens
Description: as §1, §2

T47D mammary (ER-) = test: In vitro cytotoxicity assay; format: cell-based; conditions: Homo sapiens, 2nd series of experiments
Description: as §1, §2

SKBR3 mammary (ER-) = test: In vitro cytotoxicity assay; format: cell-based; conditions: Homo sapiens, SK-BR-3
Description: as §1, §2

IGR37 melanoma = test: In vitro cytotoxicity assay; format: cell-based; conditions: Homo sapiens, IGR-37
Description: as §1, §2

41M ovarian carcinoma = test: In vitro cytotoxicity assay; format: cell-based; conditions: Homo sapiens; 2nd series of experiments
Description: as §1, §2

SKOV-3 ovarian carcinoma = test: In vitro cytotoxicity assay; format: cell-based; conditions: Homo sapiens, SK-OV-3; 2nd series of experiments
Description: as §1, §2

[5] = system: MDA 231 mammary (EGFR+/erbB3+); test: In vitro cytotoxicity assay; format: cell-based; conditions: Homo sapiens, MDA-MB-231
Description: as §1, §2

MCF 7-ADR mammary = test: In vitro cytotoxicity and growth stimulation assay; format: cell-based, human
Description: as §1, §2

MCF-7 mammary carcinoma [6] = conditions: mouse, in vivo, ip, 120 mg/kg
[7] = 2nd series of experiments, read-out: IC50

## Nc1ccc(-c2nc3ccccc3s2)cc1 [CJM 126, 2-(4-aminophenyl)benzothiazole]
MCF-7 mammary carcinoma [1]; d9
  Relative tumour volume (T/C%): 84%
MCF-7 mammary carcinoma [1]; d13
  Relative tumour volume (T/C%): 47* %
MCF-7 mammary carcinoma [1]; d20
  Relative tumour volume (T/C%): 38* %
MCF-7 mammary carcinoma [1]; d27
  Relative tumour volume (T/C%): 27* %
MCF-7 mammary carcinoma [1]; d35
  Relative tumour volume (T/C%): 27* %
MCF-7 mammary carcinoma [1]; d43
  Relative tumour volume (T/C%): 43* %
MCF-7 mammary carcinoma [1]; relative to saline treated animals
  BWC (%): -13%
[2]; 1 mg/kg/day
  BWC: -5
[2]; 1 mg/kg/day, d33
  Relative tumour volume (T/C%): 173%
[2]; 1 mg/kg/day, d41
  Relative tumour volume (T/C%): 72%
[2]; 1 mg/kg/day, d47
  Relative tumour volume (T/C%): 25* %
[2]; 1 mg/kg/day, d55
  Relative tumour volume (T/C%): 67%
[2]; 1 mg/kg/day, d61
  Relative tumour volume (T/C%): 41* %
[2]; 10 mg/kg/day
  BWC: -4
[2]; 10 mg/kg/day, d33
  Relative tumour volume (T/C%): 107%
[2]; 10 mg/kg/day, d41
  Relative tumour volume (T/C%): 74%
[2]; 10 mg/kg/day, d47
  Relative tumour volume (T/C%): 55%
[2]; 10 mg/kg/day, d55
  Relative tumour volume (T/C%): 70%
[2]; 10 mg/kg/day, d61
  Relative tumour volume (T/C%): 52%
[2]; 100 mg/kg/day
  BWC: -7
[2]; 100 mg/kg/day, d33
  Relative tumour volume (T/C%): 137%
[2]; 100 mg/kg/day, d41
  Relative tumour volume (T/C%): 77%
[2]; 100 mg/kg/day, d47
  Relative tumour volume (T/C%): 87%
[2]; 100 mg/kg/day, d55
  Relative tumour volume (T/C%): 68%
[2]; 100 mg/kg/day, d61
  Relative tumour volume (T/C%): 52%
[3]; daily administration over 3 consecutive days
  LD50: > 31 mg/kg/day
[3]; male, DBA/2, mouse, in vivo, ip, single i.p. dose, read-out: LD50
  LD50: ~125 mg/kg
A2780 ovarian carcinoma; 2nd series of experiments
  IC50: 43 µM
A2780 ovarian carcinoma; Homo sapiens, A2780, 1st series of experiments
  IC50: 8.83 µg/mL
A2780 ovarian carcinoma; Homo sapiens, A2780, 2nd series of experiments
  IC50: 39 µM
[4]; MDA 468, read-out: estimated IC50
  IC50: ~0.0016 µM
[4]; column A, read-out: MDA 468 A IC50 at sub-micromolar concentrations
  IC50: 0.0016 µM
[4]; [7]
  IC50: 0.0016 µM
ZR 75 mammary (ER+); [7]
  IC50: 0.028 µM
ZR 75 mammary (ER+); ZR 75, read-out: estimated IC50
  IC50: ~0.0247 µM
A2780/CisR
  IC50: 37 µM
CH 1/CisR
  IC50: 33 µM
41M/CisP
  IC50: 40 µM
HX/62 ovarian carcinoma
  IC50: 120 µM
MCF 7-T (ER-)
  IC50: 12.9 µM
MCF 7-B (ER+)
  IC50: 62.2 µM
A204 rhabdomyosarcoma; 1st series of experiments
  IC50: 5.94 µg/mL
A204 rhabdomyosarcoma; 2nd series of experiments
  IC50: 26 µM
CH 1 ovarian carcinoma
  IC50: 22 µM
WiDr colon carcinoma; 1st series of experiments
  IC50: 6.01 µg/mL
WiDr colon carcinoma; 2nd series of experiments
  IC50: 26 µM
T47D mammary (ER-)
  IC50: 44.1 µM
SKBR3 mammary (ER-); [7]
  IC50: 0.026 µM
SKBR3 mammary (ER-); SKBR3, read-out: estimated IC50
  IC50: ~0.0259 µM
IGR37 melanoma; 1st series of experiments
  IC50: 24 µg/mL
IGR37 melanoma; 2nd series of experiments
  IC50: 106 µM
41M ovarian carcinoma
  IC50: 36 µM
SKOV-3 ovarian carcinoma
  IC50: 64 µM
[5]; [7]
  IC50: 0.017 µM
[5]; MDA 231, read-out: estimated IC50
  IC50: ~0.0172 µM
MCF 7-ADR mammary; 2nd series of experiments, concentration giving stimulation
  stimulation: stimulation > 1µM
MCF 7-ADR mammary; 3 and 10µM, seeding density 2.5 x 10^2 cells per well
  effect on cell growth: induced proliferation
MCF-7 mammary carcinoma [6]
  signs of toxicity: no signs of severe toxicity

From EP0721336B1, “BENZAZOLE COMPOUNDS FOR USE IN THERAPY” (CANCER RESEARCH CAMPAIGN TECHNOLOGY LIMITED, priority 1993, dated 1995)
